Assay results taken from ChEMBL document CHEMBL1201862, “PubChem BioAssay data set” (2004).
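Growth conditions: 96-well plates. Treatment: test compound, 48 hours, 5 concentrations. Analysis: linear interpolation between bracketing concentrations; unreached endpoints set to highest concentration. GI50 = concentration required for 50% inhibition of growth.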 Calls of active or inactive are those of the source. Cut-off read from the data, not from the text of the source: active = GI50 up to about 1.1 µM and inactive = higher.

Experiments:
Assay in all cases: DTP human tumour cell line panel, 48 h
[1] = system: A549
[2] = system: HCT-15
[3] = system: OVCAR-8
[4] = system: HOP-92
[5] = system: Hs-578T
[6] = system: 786-0
[7] = system: MCF7
[8] = system: NCI-H226
[9] = system: SK-MEL-28
[10] = system: MDA-MB-231
[11] = system: ACHN
[12] = system: HOP-62
[13] = system: A498
[14] = system: M14
[15] = system: HCT-116
[16] = system: CAKI-1
[17] = system: NCI-H522
[18] = system: HL-60
[19] = system: T47D
[20] = system: BT-549

Compound | GI50 [1] | GI50 [2] | GI50 [3] | GI50 [4] | GI50 [5] | GI50 [6] | GI50 [7] | GI50 [8] | GI50 [9] | GI50 [10] | GI50 [11] | GI50 [12] | GI50 [13] | GI50 [14] | GI50 [15] | GI50 [16] | GI50 [17] | GI50 [18] | GI50 [19] | GI50 [20]
C[C@H](c1ccccc1)N1C(=O)[C@@H](O)[C@H]1[C@H](CO)OCc1ccccc1 | > 100 µM (inactive) | > 100 µM | > 100 µM (inactive) | 96.4 µM (inactive) | > 100 µM (inactive) | > 100 µM (inactive) | > 100 µM (inactive) | > 100 µM (inactive) | > 100 µM (inactive) | > 100 µM (inactive) | > 100 µM (inactive) | > 100 µM (inactive) | 20 µM (inactive) | > 100 µM (inactive) | > 100 µM (inactive) |  |  |  |  | 
COC1OC(CO)C(O)C(NC(=O)N(C)N=O)C1O (configuration not stated) | > 100 µM (inactive) | > 100 µM | > 100 µM (inactive) | > 100 µM (inactive) |  | > 100 µM (inactive) |  | > 100 µM (inactive) | > 100 µM (inactive) |  | > 100 µM (inactive) |  | > 100 µM (inactive) | > 100 µM (inactive) | > 100 µM (inactive) | > 100 µM (inactive) | > 100 µM (inactive) | > 100 µM (inactive) |  | 
CN(C)C(=S)/N=c1\ss/c(=N\S(=O)(=O)c2ccccc2)n1C | > 100 µM (inactive) | > 100 µM | > 100 µM (inactive) | > 100 µM (inactive) |  | > 100 µM (inactive) |  | > 100 µM (inactive) | > 100 µM (inactive) |  | > 100 µM (inactive) | > 100 µM (inactive) | > 100 µM (inactive) | > 100 µM (inactive) | > 100 µM (inactive) | > 100 µM (inactive) | > 100 µM (inactive) | > 100 µM (inactive) |  | 
O=C(O)c1ccccc1CC(Cc1ccc2c(c1)CCC2)C(=O)O (configuration not stated) | > 100 µM (inactive) | > 100 µM | > 100 µM (inactive) | > 100 µM (inactive) | > 100 µM (inactive) | > 100 µM (inactive) | > 100 µM (inactive) | > 100 µM (inactive) | > 100 µM (inactive) | > 100 µM (inactive) | > 100 µM (inactive) | > 100 µM (inactive) | > 100 µM (inactive) | > 100 µM (inactive) | > 100 µM (inactive) | > 100 µM (inactive) | > 100 µM (inactive) | > 100 µM (inactive) | > 100 µM (inactive) | 
Brc1ccc(-c2cc(-c3ccc4c(c3)OCO4)c(-c3cccs3)n2Cc2ccccc2)cc1 | > 100 µM (inactive) | > 100 µM | > 100 µM (inactive) |  | > 100 µM (inactive) | > 100 µM (inactive) | > 100 µM (inactive) |  | > 100 µM (inactive) | > 100 µM (inactive) | > 100 µM (inactive) | > 100 µM (inactive) |  | > 100 µM (inactive) | > 100 µM (inactive) | > 100 µM (inactive) |  | > 100 µM (inactive) | > 100 µM (inactive) | 
CN(C)CCNC(=O)c1cccc2nc3cc(Cl)ccc3nc12 | 2.56 µM (inactive) | 2.43 µM | 1.99 µM (inactive) | 5.77 µM (inactive) |  | 3.79 µM (inactive) |  | 1.64 µM (inactive) | 2.9 µM (inactive) |  | 1.02 µM (active) | 2.14 µM (inactive) | 1.65 µM (inactive) | 3 µM (inactive) | 0.764 µM (active) | 4.59 µM (inactive) | 2.92 µM (inactive) | 3.32 µM (inactive) |  | 
CN(C)/C=N/c1ccc2nonc2c1 | > 100 µM (inactive) | > 100 µM | > 100 µM (inactive) |  | > 100 µM (inactive) | > 100 µM (inactive) | > 100 µM (inactive) | > 100 µM (inactive) | > 100 µM (inactive) | > 100 µM (inactive) | > 100 µM (inactive) | > 100 µM (inactive) | > 100 µM (inactive) | > 100 µM (inactive) | > 100 µM (inactive) | > 100 µM (inactive) | > 100 µM (inactive) | > 100 µM (inactive) | > 100 µM (inactive) | 
Cc1cc2c(cc1Cl)SC(c1ccccc1)C(=O)NS2(=O)=O (configuration not stated) |  | 25 µM | 36.2 µM (inactive) | 30.5 µM (inactive) | 27.5 µM (inactive) | 31.6 µM (inactive) | 34 µM (inactive) | 36.3 µM (inactive) | 34.8 µM (inactive) | 32.3 µM (inactive) | 36.7 µM (inactive) | 44.3 µM (inactive) | 26.9 µM (inactive) | 39 µM (inactive) | 20.5 µM (inactive) | 38.9 µM (inactive) | 25.9 µM (inactive) | 29.3 µM (inactive) | 30.1 µM (inactive) | 
CCOC(=O)[C@@H]1ON2O[C@H](OC3CCCCC3c3ccccc3)C[C@H]3OC(=O)[C@@H]1C32 (some centres not stated) | > 100 µM (inactive) | > 100 µM | > 100 µM (inactive) | > 100 µM (inactive) | > 100 µM (inactive) | > 100 µM (inactive) | > 100 µM (inactive) | > 100 µM (inactive) |  | > 100 µM (inactive) | > 100 µM (inactive) | > 100 µM (inactive) | > 100 µM (inactive) | > 100 µM (inactive) | > 100 µM (inactive) | > 100 µM (inactive) | 67.6 µM (inactive) |  | > 100 µM (inactive) | 
CCCCOCc1cc(CN2CCN(C)CC2)c(O)c2ncccc12 | 23.6 µM (inactive) | 2.77 µM | 17.8 µM (inactive) | 55.1 µM (inactive) |  | 14.6 µM (inactive) |  | 20.8 µM (inactive) | 31.4 µM (inactive) |  | 6.24 µM (inactive) | 14.4 µM (inactive) | 24.8 µM (inactive) | 12.5 µM (inactive) | 14.7 µM (inactive) | 24.6 µM (inactive) | 26.4 µM (inactive) | 2.13 µM (inactive) |  | 
CC1(C)C(CCO)CC1n1ccc(=O)[nH]c1=O (configuration not stated) | > 100 µM (inactive) | > 100 µM |  | > 100 µM (inactive) | > 100 µM (inactive) | > 100 µM (inactive) | > 100 µM (inactive) | > 100 µM (inactive) | > 100 µM (inactive) | > 100 µM (inactive) | > 100 µM (inactive) | > 100 µM (inactive) | > 100 µM (inactive) | > 100 µM (inactive) | > 100 µM (inactive) | > 100 µM (inactive) |  |  | > 100 µM (inactive) | 
O=C1C(=c2cc3c(c4ccccc24)=NC24CCCCC2C(c2ccccc2)C=C(c2ccccc2)N34)C(=O)c2ccccc21 (configuration not stated) | 41 µM (inactive) |  | 50.4 µM (inactive) | 27.9 µM (inactive) | 34 µM (inactive) | 48.6 µM (inactive) | 14.4 µM (inactive) | 44.3 µM (inactive) | 47.2 µM (inactive) | 15.4 µM (inactive) | 54.3 µM (inactive) | 74 µM (inactive) | > 100 µM (inactive) | 44 µM (inactive) | 36.2 µM (inactive) | 53 µM (inactive) | 16.7 µM (inactive) | 27.7 µM (inactive) | 3.48 µM (inactive) | 
CC(=O)NC(CC(C)C)C(=O)NC(CC(C)C)C(=O)NC(C=O)CCCNC(=N)N (configuration not stated) | > 100 µM (inactive) | > 100 µM | > 100 µM (inactive) | > 100 µM (inactive) |  | > 100 µM (inactive) | > 100 µM (inactive) | 42.3 µM (inactive) | > 100 µM (inactive) | > 100 µM (inactive) | > 100 µM (inactive) | > 100 µM (inactive) | > 100 µM (inactive) | > 100 µM (inactive) | > 100 µM (inactive) | > 100 µM (inactive) | > 100 µM (inactive) |  |  | > 100 µM (inactive)
Nc1ccn(CCOC(=O)c2ccccc2)c(=O)n1 | > 100 µM (inactive) | > 100 µM | > 100 µM (inactive) | > 100 µM (inactive) |  | > 100 µM (inactive) |  | > 100 µM (inactive) | > 100 µM (inactive) |  | > 100 µM (inactive) | > 100 µM (inactive) | > 100 µM (inactive) | > 100 µM (inactive) | > 100 µM (inactive) | > 100 µM (inactive) | > 100 µM (inactive) | > 100 µM (inactive) |  | 
N=C(N)/N=C(\N)Nc1cnccn1 | > 100 µM (inactive) | > 100 µM | > 100 µM (inactive) | > 100 µM (inactive) |  | > 100 µM (inactive) | > 100 µM (inactive) | > 100 µM (inactive) | > 100 µM (inactive) | > 100 µM (inactive) | > 100 µM (inactive) | > 100 µM (inactive) | > 100 µM (inactive) | > 100 µM (inactive) | > 100 µM (inactive) | > 100 µM (inactive) | > 100 µM (inactive) | > 100 µM (inactive) | > 100 µM (inactive) | 
CC1OC2=N[C@@H]1C(=O)N[C@@H](C(C)C)C1=N[C@H](C(=O)N[C@@H](C(C)C)C3=N[C@H](C(=O)N[C@@H](C(C)C)C4=N[C@H](C(=O)N[C@H]2C(C)C)C(C)O4)C(C)O3)C(C)O1 (some centres not stated) |  | > 10 µM | > 10 µM (inactive) | > 10 µM (inactive) | > 10 µM (inactive) | > 10 µM (inactive) | > 10 µM (inactive) | > 10 µM (inactive) | > 10 µM (inactive) | > 10 µM (inactive) | > 10 µM (inactive) | > 10 µM (inactive) | > 10 µM (inactive) | > 10 µM (inactive) |  | > 10 µM (inactive) | > 10 µM (inactive) | > 10 µM (inactive) | > 10 µM (inactive) | 
N#C/C(=C\c1ccccc1O)C(N)=O | > 100 µM (inactive) | 87.7 µM | > 100 µM (inactive) | 32.3 µM (inactive) |  | > 100 µM (inactive) |  | 46.8 µM (inactive) | > 100 µM (inactive) |  | 48.9 µM (inactive) | > 100 µM (inactive) | > 100 µM (inactive) | > 100 µM (inactive) | 77.3 µM (inactive) | 54.8 µM (inactive) | 21.9 µM (inactive) | 20.1 µM (inactive) |  | 
